In publication PMC12372887, “Mechanism and cellular actions of the potent AMPK inhibitor BAY-3827” (Science Advances, 2025):
Read-outs that look alike come from different tables or passages of the source.

Columns and labels:
Assay in all cases: Spectral shift (Dianthus) binding assay
Conditions in all cases: read-out: dissociation constant (Kd)
[1] = target: T1, AMPKα2 kinase domain (α2KD), WT (Homo sapiens, UniProt P54646)
T1 construct: human AMPK-α2 KD (α2KD; residues 6 to 280); made in house; host or cells: E. coli BL21(DE3)-RIL
Experimental: (§1) The binding affinity of BAY-3827 to α2KD, AMPK (T172D)-α2KD, or AMPK complexes α2β2γ1 and α2β2γ3 was measured by Dianthus (Nano Temper Technologies). BAY-3827 was diluted from a 100 mM stock in DMSO to 0.5 mM working concentration in the assay buffer (PBS with 0.005% Tween-20) with a final DMSO concentration of 2.5%, which was kept constant throughout the concentration gradient of the compound. For additional experiments, assay buffer containing Hepes 25 mM, NaCl 250 mM, and 0.005% Tween-20 was used to optimize the assay, enhancing signal-to-noise ratios. His-tagged α2KD, T172D-α2KD, or His-tagged AMPK-α2β2γ1 or α2β2γ3 complexes were labeled with His-tag labeling dye (His-Tag Labeling Kit RED-tris-NTA 2nd Generation). The ratio of fluorescence intensities (670/650 nm) over BAY-3827 concentration gradient ranging from 250 μM down to 0.015 μM. The concentration gradient was prepared by 1:1 serial dilution over 16 steps, with a setup of two to three technical replicates for each concentration. The binding experiments were repeated three times, and the mean Kd values of the inhibitor are reported in the appropriate figure alongside ± SEM (micromolar) displaying a representative graph. A concentration of 50 nM of the corresponding protein target was used in each performed assay. The ratio of fluorescence intensities was measured over BAY-3827 concentration gradient in GraphPad Prism using nonlinear regression (one site-total binding). Data quality was assessed by monitoring XYZ scans for each well to detect air bubbles or aggregation where present following the manufacturer’s instructions.
(§2) Data points are plotted as means ± SEM. Data were inputted, and all statistical tests were performed using GraphPad Prism, version 10.1.0. One- or two-way analysis of variance (ANOVA) statistical tests were conducted using Tukey’s correction for multiple comparisons; specific test will be stated in the figure legend. Significance was accepted as P < 0.05. N number and statistical details for each experiment are reported in each figure legend. […] To estimate IC50 values, nonlinear regression fitting was conducted using the model (Inhibitor) versus response—variable slope in GraphPad Prism (version 10.1.0) and estimating values reported in nanomolar. To estimate binding affinities (Kd) from performed spectral shift binding assays, data were fitted using a one-site total model [Y = BmaxX/(Kd + X) + NSX + Background] where X is the ligand concentration, Bmax represents the maximum binding, and NS is the slope of the nonlinear regression of Y/X. Values are reported in means ± SEM in micromolar.

[2] = target: T2, nonphosphorylated AMPKα2β2γ1 complex (Homo sapiens, UniProt O43741+P54619+P54646)
T2 construct: For expression of full-length AMPKα2β2γ1, α2β2γ2, and α2β2γ3 complexes; made in house; host or cells: E. coli BL21(DE3)-RIL
Experimental: as §1, §2

AMPKα2 (T172D)–α2KD = target: T3, AMPKα2 (T172D)–α2KD (Homo sapiens, UniProt P54646, T172D)
T3 construct: human AMPK-α2 KD (α2KD; residues 6 to 280); made in house; host or cells: E. coli BL21(DE3)-RIL
Experimental: as §1, §2

[3] = target: T4, nonphosphorylated AMPKα2β2γ3 complex (Homo sapiens, UniProt O43741+P54646+Q9UGI9)
T4 construct: For expression of full-length AMPKα2β2γ1, α2β2γ2, and α2β2γ3 complexes; made in house; host or cells: E. coli BL21(DE3)-RIL
Experimental: as §1, §2

T3 sequence (P54646 6-280 T172D): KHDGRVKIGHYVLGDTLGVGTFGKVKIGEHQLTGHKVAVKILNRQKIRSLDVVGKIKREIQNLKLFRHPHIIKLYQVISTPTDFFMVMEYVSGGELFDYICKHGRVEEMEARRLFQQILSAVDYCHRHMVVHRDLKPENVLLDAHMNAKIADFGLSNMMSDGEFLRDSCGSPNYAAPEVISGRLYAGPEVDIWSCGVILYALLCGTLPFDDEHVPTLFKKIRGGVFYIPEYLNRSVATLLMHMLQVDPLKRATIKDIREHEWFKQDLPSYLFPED
T1 sequence (P54646 6-280): as the sequence (P54646 6-280 T172D) above, with D167T counted along it
T4 sequence (P54646 whole entry): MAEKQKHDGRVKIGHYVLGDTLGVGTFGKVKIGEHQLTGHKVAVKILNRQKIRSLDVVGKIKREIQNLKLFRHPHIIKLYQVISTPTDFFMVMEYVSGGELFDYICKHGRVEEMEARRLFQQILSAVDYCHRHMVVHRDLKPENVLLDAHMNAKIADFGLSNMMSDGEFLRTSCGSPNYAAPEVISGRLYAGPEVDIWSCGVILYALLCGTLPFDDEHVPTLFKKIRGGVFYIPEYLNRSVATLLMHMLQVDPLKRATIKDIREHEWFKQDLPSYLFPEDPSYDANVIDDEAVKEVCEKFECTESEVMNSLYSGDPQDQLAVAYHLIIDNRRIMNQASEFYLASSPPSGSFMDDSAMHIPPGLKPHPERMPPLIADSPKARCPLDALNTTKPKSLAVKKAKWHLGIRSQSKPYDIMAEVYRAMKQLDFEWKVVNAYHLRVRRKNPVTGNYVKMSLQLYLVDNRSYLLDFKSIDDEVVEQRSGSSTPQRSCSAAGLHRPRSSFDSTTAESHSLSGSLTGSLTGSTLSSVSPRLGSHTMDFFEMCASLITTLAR
T4 sequence (O43741 whole entry partner): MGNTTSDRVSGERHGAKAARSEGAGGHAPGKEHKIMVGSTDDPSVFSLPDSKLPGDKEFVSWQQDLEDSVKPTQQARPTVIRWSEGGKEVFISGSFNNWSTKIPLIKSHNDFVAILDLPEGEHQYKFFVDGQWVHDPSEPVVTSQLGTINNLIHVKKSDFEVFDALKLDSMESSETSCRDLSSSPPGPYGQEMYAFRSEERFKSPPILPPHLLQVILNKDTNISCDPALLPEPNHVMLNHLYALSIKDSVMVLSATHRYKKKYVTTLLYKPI
T4 sequence (Q9UGI9 whole entry partner): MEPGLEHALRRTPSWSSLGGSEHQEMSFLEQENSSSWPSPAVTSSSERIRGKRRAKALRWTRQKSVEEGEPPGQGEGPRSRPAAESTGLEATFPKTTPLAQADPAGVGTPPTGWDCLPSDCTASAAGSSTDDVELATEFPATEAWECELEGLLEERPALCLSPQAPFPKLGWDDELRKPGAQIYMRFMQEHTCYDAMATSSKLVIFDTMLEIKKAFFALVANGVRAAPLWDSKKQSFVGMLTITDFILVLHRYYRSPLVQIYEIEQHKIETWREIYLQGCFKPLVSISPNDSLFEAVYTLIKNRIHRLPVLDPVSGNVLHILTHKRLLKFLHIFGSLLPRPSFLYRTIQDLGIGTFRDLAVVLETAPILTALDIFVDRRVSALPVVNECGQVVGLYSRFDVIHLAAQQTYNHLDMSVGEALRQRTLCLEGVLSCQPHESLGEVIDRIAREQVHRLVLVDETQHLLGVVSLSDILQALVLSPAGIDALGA
T2 sequence (P54646 whole entry): as the sequence (P54646 whole entry) above
T2 sequence (O43741 whole entry partner): as the sequence (O43741 whole entry partner) above
T2 sequence (P54619 whole entry partner): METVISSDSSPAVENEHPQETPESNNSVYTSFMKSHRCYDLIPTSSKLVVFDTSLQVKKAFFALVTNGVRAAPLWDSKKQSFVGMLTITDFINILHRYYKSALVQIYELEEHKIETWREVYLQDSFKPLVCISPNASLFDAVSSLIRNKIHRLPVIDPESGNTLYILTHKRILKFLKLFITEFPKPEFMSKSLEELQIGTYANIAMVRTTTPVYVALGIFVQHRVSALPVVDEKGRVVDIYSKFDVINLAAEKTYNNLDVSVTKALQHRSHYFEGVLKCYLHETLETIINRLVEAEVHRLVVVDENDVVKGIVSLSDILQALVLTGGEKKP

CCc1ccccc1C(=O)Nc1n[nH]c2c(C)c(F)c(C3C(C#N)=C(C)N(C)C(C)=C3C#N)cc12 [BAY-3827, N-[5-(3,5-dicyano-1,2,6-trimethyl-4H-pyridin-4-yl)-6-fluoro-7-methyl-1H-indazol-3-yl]-2-ethylbenzamide] showed a Kd ([1]; +3 mM DTT) of 28.6 ± 12.5 µM, a Kd ([1]; without DTT) of 1.23 µM and a Kd [2] of 11.3 ± 5.23 µM. It also gave a Kd (AMPKα2 (T172D)–α2KD; +3 mM DTT) of 9.01 ± 1.85 µM, a Kd (AMPKα2 (T172D)–α2KD; - DTT) of 8.65 ± 1.38 µM and a Kd [3] of 21.8 ± 8.51 µM.
